This is an account of results in PubChem BioAssay AID2060327 (Molecular Pharmacology Branch, DTP, NCI, 2025).

SMILES strings stand for the structures. “And” between values parts separate entries of the source, which are not always exact repeats. Identical values can stand only once.

The assay relates to PC-3 multi-cell spheroids, viability. The experiment in a line: Anticancer human tumor PC-3 cell line growth inhibition [IpAb].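 As to all read-outs here: spheroids exposed to compounds for 7 days before readout.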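 As to viability, T/C: 100% = DMSO vehicle control wells.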 The settings on record: for viability, T/C: stronger effect = lower value. In short, it runs like this:
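Spheroids of 60% malignant cells, 25% HUVEC and 15% MSC were exposed to targeted agents combined with ipatasertib or abemaciclib. Doses started at or near clinical Cmax (10 microM when unknown) and fell in half-log steps.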

Where [1] appears, read: curve of first compound, second compound 0.1 µM.
Where [2] appears, read: curve of first compound, second compound 0.316 µM.
The mark [3] stands for this setting: curve of first compound, second compound 1 µM.
The mark [4] stands for this setting: curve of first compound, second compound 0.01 µM.
Setting [5] is: curve of first compound, second compound 0.0316 µM.
Where [6] appears, read: second compound 0.01 µM, first compound 0.00949 µM.
Where [7] appears, read: second compound 0.01 µM, first compound 0.03 µM.
Setting [8] is: second compound 0.01 µM, first compound 0.0949 µM.
[9] abbreviates: second compound 0.01 µM, first compound 0.3 µM.
The mark [10] stands for this setting: second compound 0.0316 µM, first compound 0.00949 µM.
Setting [11] is: second compound 0.0316 µM, first compound 0.03 µM.
Where [12] appears, read: second compound 0.0316 µM, first compound 0.0949 µM.
Setting [13] is: second compound 0.0316 µM, first compound 0.3 µM.
Where [14] appears, read: second compound 0.1 µM, first compound 0.00949 µM.
Setting [15] is: second compound 0.1 µM, first compound 0.03 µM.
The mark [16] stands for this setting: second compound 0.1 µM, first compound 0.0949 µM.
The mark [17] stands for this setting: second compound 0.1 µM, first compound 0.3 µM.
[18] abbreviates: second compound 0.316 µM, first compound 0.00949 µM.
Setting [19] is: second compound 0.316 µM, first compound 0.03 µM.
Where [20] appears, read: second compound 0.316 µM, first compound 0.0949 µM.
[21] abbreviates: second compound 0.316 µM, first compound 0.3 µM.
The mark [22] stands for this setting: second compound 1 µM, first compound 0.00949 µM.
Setting [23] is: second compound 1 µM, first compound 0.03 µM.
Setting [24] is: second compound 1 µM, first compound 0.0949 µM.
Setting [25] is: second compound 1 µM, first compound 0.3 µM.

As a reminder, the IC50 is the point on the concentration scale where inhibition reaches its midpoint. As usually defined, the viability, T/C is the result in the treated group divided by that in the control group, in per cent. On to `C=CCn1c(=O)c2cnc(Nc3ccc(N4CCN(C)CC4)cc3)nc2n1-c1cccc(C(C)(C)O)n1` + CC(C)NCC(C(=O)N1CCN(c2ncnc3c2C(C)CC3O)CC1)c1ccc(Cl)cc1, for which the IC50 was 114 nM under setting [1]; below 31.6 nM under setting [2]; below 31.6 nM under setting [3]; below 31.6 nM (curve of first compound, second compound 3.16 µM); below 31.6 nM (curve of first compound, second compound 10 µM). Also, the viability, T/C was 73.4% (second compound 0.1 µM, first compound 0.0316 µM); 48.6% (second compound 0.1 µM, first compound 0.1 µM); 42.4% (second compound 0.1 µM, first compound 0.316 µM); 20.5% (second compound 0.1 µM, first compound 1 µM); 19.6% (second compound 0.1 µM, first compound 3.16 µM); 21.1% (second compound 0.1 µM, first compound 10 µM). In addition, the viability, T/C by setting is: (second compound 0.316 µM, first compound 0.0316 µM) 41.3%; (second compound 0.316 µM, first compound 0.1 µM) 31.3%; (second compound 0.316 µM, first compound 0.316 µM) 15.4%; (second compound 0.316 µM, first compound 1 µM) 14.1%; (second compound 0.316 µM, first compound 3.16 µM) 13.8%; (second compound 0.316 µM, first compound 10 µM) 17.2%. Also, the viability, T/C is, setting by setting: (second compound 1 µM, first compound 0.0316 µM) 20.4%; (second compound 1 µM, first compound 0.1 µM) 16.2%; (second compound 1 µM, first compound 0.316 µM) 10.6%; (second compound 1 µM, first compound 1 µM) 9.67%; (second compound 1 µM, first compound 3.16 µM) 9.62%; (second compound 1 µM, first compound 10 µM) 11.5%. Also, the viability, T/C reads like this: (second compound 3.16 µM, first compound 0.0316 µM) 14.3%; (second compound 3.16 µM, first compound 0.1 µM) 11%; (second compound 3.16 µM, first compound 0.316 µM) 8.81%; (second compound 3.16 µM, first compound 1 µM) 7.7%; (second compound 3.16 µM, first compound 3.16 µM) 8.01%; (second compound 3.16 µM, first compound 10 µM) 7.89%. For the same compound, the viability, T/C was 13.1% (second compound 10 µM, first compound 0.0316 µM); 11.7% (second compound 10 µM, first compound 0.1 µM); 8.4% (second compound 10 µM, first compound 0.316 µM); 6.86% (second compound 10 µM, first compound 1 µM); 7.49% (second compound 10 µM, first compound 3.16 µM); 7.22% (second compound 10 µM, first compound 10 µM).

Turning to `Cn1cnc2c(F)c(Nc3ccc(Br)cc3Cl)c(C(=O)NOCCO)cc21` + CCN1CCN(Cc2ccc(Nc3ncc(F)c(-c4cc(F)c5nc(C)n(C(C)C)c5c4)n3)nc2)CC1, the IC50 was above 3000 nM under setting [4]; 1950 nM under setting [5]; 1580 nM under setting [1]; 594 nM under setting [2]; 29.4 nM under setting [3]. In addition, the viability, T/C under setting [6] is 95%; the viability, T/C under setting [7] was 86.2%; the viability, T/C under setting [8] is 91.7%; the viability, T/C under setting [9] was 87.7%; the viability, T/C (second compound 0.01 µM, first compound 0.949 µM) was 79.7%; the viability, T/C (second compound 0.01 µM, first compound 3 µM) is 59.8%. The viability, T/C by setting is: under setting [10], 74.1%; under setting [11], 72.1%; under setting [12], 62.2%; under setting [13], 71.8%; (second compound 0.0316 µM, first compound 0.949 µM) 57%; (second compound 0.0316 µM, first compound 3 µM) 45%. Moreover, the viability, T/C by setting is: under setting [14], 56%; under setting [15], 58.3%; under setting [16], 58.2%; under setting [17], 49.2%; (second compound 0.1 µM, first compound 0.949 µM) 53.7%; (second compound 0.1 µM, first compound 3 µM) 47.8%. Moreover, the viability, T/C reads like this: under setting [18], 60.2%; under setting [19], 50.5%; under setting [20], 53.6%; under setting [21], 54.6%; (second compound 0.316 µM, first compound 0.949 µM) 48.1%; (second compound 0.316 µM, first compound 3 µM) 41.5%. Besides, the viability, T/C was 53.2% under setting [22]; 47.3% under setting [23]; 42.6% under setting [24]; 52.1% under setting [25]; 57.2% (second compound 1 µM, first compound 0.949 µM); 36.5% (second compound 1 µM, first compound 3 µM).

As for `CC(=O)c1c(C)c2cnc(Nc3ccc(N4CCNCC4)cn3)nc2n(C2CCCC2)c1=O`, the viability, T/C (compound 0.000949 µM) was 95.8% and 105%; the viability, T/C (compound 0.003 µM) was 96.3% and 95.7%; the viability, T/C (compound 0.00949 µM) was 88.9% and 83.5%; the viability, T/C (compound 0.03 µM) is 63.2% and 72.3%; the viability, T/C (compound 0.0949 µM) is 56.1% and 64.3%; the viability, T/C (compound 0.3 µM) was 62.9% and 61.2%. Also, the IC50 (curve of compound) was above 300 nM.

Turning to `Cn1nccc1Nc1nccc(-c2ccn(C(CO)c3ccc(Cl)c(F)c3)c(=O)c2)n1` (stereo unspecified), the viability, T/C is 98.1% and 104% (compound 0.0316 µM); 99.6% and 97.7% (compound 0.1 µM); 90.7% and 104% (compound 0.316 µM); 119% and 109% (compound 1 µM); 125% and 119% (compound 3.16 µM); 41.7% and 92.9% (compound 10 µM). In addition, the IC50 (curve of compound) was 8630 nM and > 10000 nM.

For `COc1c(OCCCN2CCOCC2)ccc2c3n(c(=NC(=O)c4cnc(N)nc4)nc12)CCN3`, the viability, T/C (compound 0.00316 µM) was 97.6% and 101%; the viability, T/C (compound 0.01 µM) is 79% and 99.4%; the viability, T/C (compound 0.0316 µM) was 47.7% and 104%; the viability, T/C (compound 0.1 µM) was 21.7% and 69.3%; the viability, T/C (compound 0.316 µM) was 6.8% and 11.9%; the viability, T/C (compound 1 µM) was 5.07% and 9.47%. Moreover, for the setting “curve of compound”, the 50% inhibitory concentration (IC50) is 29.2 nM and 146 nM.

Take `CC(=O)c1c(C)c2cnc(Nc3ccc(N4CCNCC4)cn3)nc2n(C2CCCC2)c1=O` + CCN1CCN(Cc2ccc(Nc3ncc(F)c(-c4cc(F)c5nc(C)n(C(C)C)c5c4)n3)nc2)CC1: the IC50 under setting [4] was above 300 nM; the IC50 under setting [5] was above 300 nM; the IC50 under setting [1] was above 300 nM; the IC50 under setting [2] was above 300 nM; the IC50 under setting [3] is above 300 nM. Besides, the viability, T/C is 79.2% (second compound 0.01 µM, first compound 0.000949 µM); 68.6% (second compound 0.01 µM, first compound 0.003 µM); 70.7% under setting [6]; 61.7% under setting [7]; 62% under setting [8]; 56.6% under setting [9]. For the same compound, the viability, T/C is 49.9% (second compound 0.0316 µM, first compound 0.000949 µM); 57.3% (second compound 0.0316 µM, first compound 0.003 µM); 53.7% under setting [10]; 53.7% under setting [11]; 56.4% under setting [12]; 59.8% under setting [13]. In addition, the viability, T/C (second compound 0.1 µM, first compound 0.000949 µM) was 53.5%; the viability, T/C (second compound 0.1 µM, first compound 0.003 µM) was 53.9%; the viability, T/C under setting [14] is 52.9%; the viability, T/C under setting [15] is 53.7%; the viability, T/C under setting [16] was 57.9%; the viability, T/C under setting [17] was 55.4%. Further, the viability, T/C is 60% (second compound 0.316 µM, first compound 0.000949 µM); 56.8% (second compound 0.316 µM, first compound 0.003 µM); 63.1% under setting [18]; 64.9% under setting [19]; 65.5% under setting [20]; 60.9% under setting [21]. The viability, T/C (second compound 1 µM, first compound 0.000949 µM) is 58.1%; the viability, T/C (second compound 1 µM, first compound 0.003 µM) was 60.2%; the viability, T/C under setting [22] is 57.3%; the viability, T/C under setting [23] is 57.5%; the viability, T/C under setting [24] was 51.2%; the viability, T/C under setting [25] was 55.1%.
